Measurements from patent US20060105969A1, “Anthelmintic compositions” (priority 1999, published 2006).
Where two headings read alike, the source gives them in different places.

Test system: L4 Heartworm (D. immitis)
Test: In vitro L4 heartworm (D. immitis) larval motility assay
Type: cell-based, Dirofilaria immitis

Row | Structure (SMILES) | effect in causing mortality or paralysis | Observation score (larval motility), duplicate observations (1 mcg/ml, 2 h post treatment) | Observation score (larval motility), duplicate observations (1 mcg/ml, 4 h post treatment) | Observation score (larval motility), duplicate observations (1 mcg/ml, 24 h post treatment) | Observation score (larval motility), duplicate observations (1 mcg/ml, 48 h post treatment) | Observation score (larval motility), duplicate observations (1 mcg/ml, 72 h post treatment) | Observation score (larval motility), duplicate observations (10 mcg/ml, 2 h post treatment) | Observation score (larval motility), duplicate observations (10 mcg/ml, 4 h post treatment) | Observation score (larval motility), duplicate observations (10 mcg/ml, 24 h post treatment) | Observation score (larval motility), duplicate observations (10 mcg/ml, 48 h post treatment) | Observation score (larval motility), duplicate observations (10 mcg/ml, 72 h post treatment) | Observation score (larval motility), duplicate observations
1 | CO[C@H]1C[C@H](O[C@@H]2/C(C)=C/C[C@@H]3C[C@@H](C[C@]4(CC[C@H](C)[C@@H](C5CCCCC5)O4)O3)OC(=O)[C@@H]3C=C(C)/C(=N/O)[C@H]4OC/C(=C\C=C\[C@@H]2C)[C@]43O)O[C@@H](C)[C@@H]1O [(1), 5-oximino 22,23-dihydro-25-cyclohexylayermectin B1 monosaccharide] | only a modest effect | 5/5 | 5/5 | 5/5 | 5/5 | 5/5 | 2/2 | 2/0 | 3/3 | 4/4 | 3/4 | 
2 | N#Cc1nn(-c2c(Cl)cc(C(F)(F)F)cc2Cl)c(N)c1[S+]([O-])C(F)(F)F (stereo not shown) [Fipronil, 5-amino-3-cyano-1-(2,6-dichloro-4-trifluorome-thylphenyl)-4-trifluoromethylsulphinylpyrazole] | no observable effect at all |  |  |  |  |  |  |  |  |  |  | 5/5
